Measurements as given in ChEMBL document CHEMBL3885881, “DrugMatrix”.

Organism: Rattus norvegicus
Assay: DrugMatrix - Regimen: Daily Repeat
Assay type: toxicity, organism-based, Sprague-Dawley
Set-up: regimen Daily Repeat, gender Male, age 6-8 weeks
Conditions: in vivo, po, route oral GAVAGE, vehicle 100 % WATER; for ABSOLUTE BASOPHIL / ABSOLUTE EOSINOPHIL / ABSOLUTE LYMPHOCYTE / ABSOLUTE MONOCYTE / ABSOLUTE SEGMENTED NEUTROPHIL / BASOPHIL / EOSINOPHIL / ERYTHROCYTE COUNT / HEMATOCRIT / HEMOGLOBIN / LEUKOCYTE COUNT / LYMPHOCYTE / MEAN CORPUSCULAR HEMOGLOBIN / MEAN CORPUSCULAR HEMOGLOBIN CONCENTRATION / MEAN CORPUSCULAR VOLUME / MONOCYTE / NEUTROPHIL / NUCLEATED RED BLOOD CELLS / PLATELET COUNT: tissue Blood; for ALANINE AMINOTRANSFERASE / ALBUMIN / ALKALINE PHOSPHATASE / ASPARTATE AMINOTRANSFERASE / BLOOD UREA NITROGEN / CARBON DIOXIDE / CHLORIDE / CHOLESTEROL / CREATINE PHOSPHOKINASE / CREATININE / GLUCOSE / LACTATE DEHYDROGENASE / LIPASE / PHOSPHORUS / POTASSIUM / SODIUM / TOTAL BILIRUBIN / TOTAL PROTEIN / URIC ACID: tissue Plasma
[1] = 0 mg/kg, 72 h, dose level Control, time 3 day
[2] = 0 mg/kg, 120 h, dose level Control, time 5 day
[3] = 19.5 mg/kg, 72 h, dose level Low, time 3 day

CN1CCC[C@H]1c1cccnc1 [NICOTINE]
ABSOLUTE BASOPHIL [1]: 0 CELLS/uL | ABSOLUTE EOSINOPHIL [1]: 0 CELLS/uL | ABSOLUTE LYMPHOCYTE [1]: 10386.33 CELLS/uL | ABSOLUTE MONOCYTE [1]: 88.5 CELLS/uL | ABSOLUTE SEGMENTED NEUTROPHIL [1]: 1008.5 CELLS/uL | BASOPHIL [1]: 0% | EOSINOPHIL [1]: 0% | ERYTHROCYTE COUNT [1]: 5.16 x10E6/uL | HEMATOCRIT [1]: 32.43% | HEMOGLOBIN [1]: 12.98 G/DL | LEUKOCYTE COUNT [1]: 11.48 x10E3/uL | LYMPHOCYTE [1]: 92.33% | MEAN CORPUSCULAR HEMOGLOBIN [1]: 25.23 pg | MEAN CORPUSCULAR HEMOGLOBIN CONCENTRATION [1]: 40.08 G/DL | MEAN CORPUSCULAR VOLUME [1]: 62.95 fL | MONOCYTE [1]: 0.67% | NEUTROPHIL [1]: 7% | NUCLEATED RED BLOOD CELLS [1]: 0 /100WBC | PLATELET COUNT [1]: 1016.67 x10E3/uL | ALANINE AMINOTRANSFERASE [1]: 62.17 u/L | ALBUMIN [1]: 3.95 G/DL | ALKALINE PHOSPHATASE [1]: 363.5 u/L | ASPARTATE AMINOTRANSFERASE [1]: 118 u/L | BLOOD UREA NITROGEN [1]: 14.5 mg/dL | CARBON DIOXIDE [1]: 22.83 mmol/L | CHLORIDE [1]: 100.67 MEQ/L | CHOLESTEROL [1]: 66 mg/dL | CREATINE PHOSPHOKINASE [1]: 1308.83 u/L | CREATININE [1]: 0.22 mg/dL | GLUCOSE [1]: 187.5 mg/dL | LACTATE DEHYDROGENASE [1]: 380.17 u/L | LIPASE [1]: 16.17 u/L | PHOSPHORUS [1]: 14.27 mg/dL | POTASSIUM [1]: 6.8 MEQ/L | SODIUM [1]: 142.53 MEQ/L | TOTAL BILIRUBIN [1]: 0.2 mg/dL | TOTAL PROTEIN [1]: 5.68 G/DL | URIC ACID [1]: 2.87 mg/dL | ABSOLUTE BASOPHIL [2]: 0 CELLS/uL | ABSOLUTE EOSINOPHIL [2]: 80 CELLS/uL | ABSOLUTE LYMPHOCYTE [2]: 13301.33 CELLS/uL | ABSOLUTE MONOCYTE [2]: 180.83 CELLS/uL | ABSOLUTE SEGMENTED NEUTROPHIL [2]: 1187.83 CELLS/uL | BASOPHIL [2]: 0% | EOSINOPHIL [2]: 0.5% | ERYTHROCYTE COUNT [2]: 5.54 x10E6/uL | HEMATOCRIT [2]: 35.65% | HEMOGLOBIN [2]: 14.22 G/DL | LEUKOCYTE COUNT [2]: 14.75 x10E3/uL | LYMPHOCYTE [2]: 90.67% | MEAN CORPUSCULAR HEMOGLOBIN [2]: 25.65 pg | MEAN CORPUSCULAR HEMOGLOBIN CONCENTRATION [2]: 39.88 G/DL | MEAN CORPUSCULAR VOLUME [2]: 64.35 fL | MONOCYTE [2]: 1% | NEUTROPHIL [2]: 7.83% | NUCLEATED RED BLOOD CELLS [2]: 0.17 /100WBC | PLATELET COUNT [2]: 1285.33 x10E3/uL | ALANINE AMINOTRANSFERASE [2]: 51.67 u/L | ALBUMIN [2]: 4.08 G/DL | ALKALINE PHOSPHATASE [2]: 391.5 u/L | ASPARTATE AMINOTRANSFERASE [2]: 99.5 u/L | BLOOD UREA NITROGEN [2]: 15.5 mg/dL | CARBON DIOXIDE [2]: 28.33 mmol/L | CHLORIDE [2]: 101.83 MEQ/L | CHOLESTEROL [2]: 67.83 mg/dL | CREATINE PHOSPHOKINASE [2]: 771.33 u/L | CREATININE [2]: 0.23 mg/dL | GLUCOSE [2]: 156.5 mg/dL | LACTATE DEHYDROGENASE [2]: 544.33 u/L | LIPASE [2]: 10.17 u/L | PHOSPHORUS [2]: 12.03 mg/dL | POTASSIUM [2]: 6.81 MEQ/L | SODIUM [2]: 144.13 MEQ/L | TOTAL BILIRUBIN [2]: 0.22 mg/dL | TOTAL PROTEIN [2]: 6 G/DL | URIC ACID [2]: 2.18 mg/dL | ABSOLUTE BASOPHIL [3]: 0 CELLS/uL | ABSOLUTE EOSINOPHIL [3]: 274 CELLS/uL | ABSOLUTE LYMPHOCYTE [3]: 12164.33 CELLS/uL | ABSOLUTE MONOCYTE [3]: 176.67 CELLS/uL | ABSOLUTE SEGMENTED NEUTROPHIL [3]: 1085 CELLS/uL | BASOPHIL [3]: 0% | EOSINOPHIL [3]: 2% | ERYTHROCYTE COUNT [3]: 5.66 x10E6/uL | HEMATOCRIT [3]: 36.1% | HEMOGLOBIN [3]: 14.13 G/DL | LEUKOCYTE COUNT [3]: 13.7 x10E3/uL | LYMPHOCYTE [3]: 88.67% | MEAN CORPUSCULAR HEMOGLOBIN [3]: 24.97 pg | MEAN CORPUSCULAR HEMOGLOBIN CONCENTRATION [3]: 39.17 G/DL | MEAN CORPUSCULAR VOLUME [3]: 63.73 fL | MONOCYTE [3]: 1.33% | NEUTROPHIL [3]: 8% | NUCLEATED RED BLOOD CELLS [3]: 0 /100WBC | PLATELET COUNT [3]: 1341.67 x10E3/uL | ALANINE AMINOTRANSFERASE [3]: 53.67 u/L | ALBUMIN [3]: 4.07 G/DL | ALKALINE PHOSPHATASE [3]: 372.67 u/L | ASPARTATE AMINOTRANSFERASE [3]: 86.33 u/L | BLOOD UREA NITROGEN [3]: 14 mg/dL | CARBON DIOXIDE [3]: 22 mmol/L | CHLORIDE [3]: 103 MEQ/L | CHOLESTEROL [3]: 69 mg/dL | CREATINE PHOSPHOKINASE [3]: 441.67 u/L | CREATININE [3]: 0.28 mg/dL | GLUCOSE [3]: 182.33 mg/dL | LACTATE DEHYDROGENASE [3]: 226.33 u/L | LIPASE [3]: 10.67 u/L | PHOSPHORUS [3]: 12.5 mg/dL | POTASSIUM [3]: 5.92 MEQ/L | SODIUM [3]: 144.87 MEQ/L | TOTAL BILIRUBIN [3]: 0.2 mg/dL | TOTAL PROTEIN [3]: 5.77 G/DL | URIC ACID [3]: 1.67 mg/dL
